This assay concerns TGFβ activated genes. In words: TGF-β osmotic pump mouse skin model, gene expression by nanostring. It counts as in vivo, C57BL/6 mice. Also on record: key to Adam12 expression, TGFb/TGFbimatinib / spp1 expression, TGFb/TGFbimatinib / Thbs1 expression, TGFb/TGFbimatinib / Col1a1 expression, TGFb/TGFbimatinib / Sfrp2 expression, TGFb/TGFbimatinib / acta2 expression, TGFb/TGFbimatinib / Angpt2 expression, TGFb/TGFbimatinib / lox expression, TGFb/TGFbimatinib / Fmod expression, TGFb/TGFbimatinib / Wisp1 expression, TGFb/TGFbimatinib / serpine1 expression, TGFb/TGFbimatinib: TGFβ treatment works and the effect is blocked by imatinib in the local skin (+); DS+ skin (−). The conditions noted are these: for serpine1 expression, TGFb/TGFbimatinib / Adam12 expression, TGFb/TGFbimatinib / spp1 expression, TGFb/TGFbimatinib / Thbs1 expression, TGFb/TGFbimatinib / Col1a1 expression, TGFb/TGFbimatinib / Sfrp2 expression, TGFb/TGFbimatinib / acta2 expression, TGFb/TGFbimatinib / Angpt2 expression, TGFb/TGFbimatinib / lox expression, TGFb/TGFbimatinib / Fmod expression, TGFb/TGFbimatinib / Wisp1 expression, TGFb/TGFbimatinib: imatinib cream topical 2 times per day, 7 days; for serpine1 expression, TGFb/TGFbimatinib: FIG. 3; for Adam12 expression, TGFb/TGFbimatinib: FIG. 4; for spp1 expression, TGFb/TGFbimatinib: FIG. 5; for Thbs1 expression, TGFb/TGFbimatinib: FIG. 6; for Col1a1 expression, TGFb/TGFbimatinib: FIG. 7; for Sfrp2 expression, TGFb/TGFbimatinib: FIG. 8; for acta2 expression, TGFb/TGFbimatinib: FIG. 9; for Angpt2 expression, TGFb/TGFbimatinib: FIG. 10; for lox expression, TGFb/TGFbimatinib: FIG. 11; for Fmod expression, TGFb/TGFbimatinib: FIG. 12; for Wisp1 expression, TGFb/TGFbimatinib: FIG. 13. Here is the method:
C57BL/6 mice were obtained from The Jackson Laboratory (Bar Harbor, Me.). Osmotic pumps (Alzet, model 2001) designed to deliver 1 μL/h were loaded with TGF-β (1.25 μg) in phosphate buffered saline (PBS) supplemented with 0.1 mg/mL bovine serum albumin (BSA). Pumps were implanted subcutaneously in 8-week-old mice, who were subsequently treated with imatinib or placebo cream. After […], mice were sacrificed, and the skin (˜1 cm^2) surrounding the pump outlet was homogenized in TRIzol (Invitrogen) for preparation of RNA, or fixed in formalin. Skin from mice treated with PBS and TGF-β was analyzed using nanostring technology. A set of 50 genes including inflammatory genes, macrophages markers, TGF-β-regulated genes, and others were analyzed. 100 ng of RNA per sample was used and gene expression was normalized to the expression of 8 housekeeping-genes.
TGFb 2.5 μg/mL in 7 day Alzet pump.
imatinib cream topical application 7 days (2 times per day)
(3) −DS=Far from local skin

For `Cc1ccc(NC(=O)c2ccc(CN3CCN(C)CC3)cc2)cc1Nc1nccc(-c2cccnc2)n1` [imatinib], for the setting “DS+ (near local skin)”, the “serpine1 expression, TGFb/TGFbimatinib” value was “(−)”; the “Adam12 expression, TGFb/TGFbimatinib” value is recorded as “(−)”; the “spp1 expression, TGFb/TGFbimatinib” value is recorded as “(−)”; the “Thbs1 expression, TGFb/TGFbimatinib” value was “(−)”. Under “DS+ (near local skin)”, the “Col1a1 expression, TGFb/TGFbimatinib” value was “(−)”; the “Sfrp2 expression, TGFb/TGFbimatinib” value is on record as “(−)”; the “acta2 expression, TGFb/TGFbimatinib” value is recorded as “(−)”; the “Angpt2 expression, TGFb/TGFbimatinib” value is given as “(−)”. For the same compound, where the note is “DS+ (near local skin)”, the “lox expression, TGFb/TGFbimatinib” value was “(−)”; the “Fmod expression, TGFb/TGFbimatinib” value was “(−)”; the “Wisp1 expression, TGFb/TGFbimatinib” value is reported as “(−)”. In addition, for the setting “LS (local skin)”, the “serpine1 expression, TGFb/TGFbimatinib” value is listed as “(+)”; the “Adam12 expression, TGFb/TGFbimatinib” value was “(+)”; the “spp1 expression, TGFb/TGFbimatinib” value is “(+)”; the “Thbs1 expression, TGFb/TGFbimatinib” value was “(+?)”. For the setting “LS (local skin)”, the “Col1a1 expression, TGFb/TGFbimatinib” value was “(+)”; the “Sfrp2 expression, TGFb/TGFbimatinib” value is given as “(+)”; the “acta2 expression, TGFb/TGFbimatinib” value is listed as “(+)”; the “Angpt2 expression, TGFb/TGFbimatinib” value is recorded as “(+)”. Under “LS (local skin)”, the “lox expression, TGFb/TGFbimatinib” value is “(+)”; the “Fmod expression, TGFb/TGFbimatinib” value is “(+)”; the “Wisp1 expression, TGFb/TGFbimatinib” value was “(+)”. Besides, the “effect of TGFβ treatment in skin” value (local skin (+) and DS+ skin (−), topical imatinib cream) is on record as “blocked”. In addition, the “activation of TGFβ activated genes” value (mouse skin, topical imatinib cream) is listed as “inhibits the activation of these genes”.

(Values after patent US20160120865A1, “TOPICAL TREATMENT OF LOCALIZED SCLERODERMA” (PRECISION DERMATOLOGY, INC., priority 2013, published 2016).)
